# Test results reported in patent US8901171B2, “Compounds for suppressing a peripheral nerve disorder induced by an anti-cancer agent” (Takeda Pharmaceutical Company Limited, priority 2010, dated 2014).
# Tests used:
# Type in all cases: in vivo
# [1] = system: Mice (C57BL/6N, male, 8-week-old), peripheral nerve disorders induced by various anti-cancer agents; experiment: Experimental Example 4: pain threshold of mice given various anti-cancer agents, compound 9′, balance type pressing device (Ugo Basile)
# Experimental: Group D was intravenously administered with compound 9′ (1 mg/kg body weight) of Reference Example B dissolved in solution of N methyl-D(−)-glucamine (0.01 mol/L) immediately before intraperitoneal administration of various anti-cancer agents. Pain threshold of each group was measured 3 week after the administration for paclitaxel and 1 week after the administration for the anti-cancer agents other than paclitaxel. Pain threshold is a weighed value (gram) at the time when a false escape response is observed by pressurizing the plantar part of the right hindlimb using a balance type pressing device (Ugo Basile). The values in the Table show mean±standard error of the weighed values, and n is the number of the mice in each group.
# [2] = system: Mice (C57BL/6N, male, 7-week-old), peripheral nerve disorders induced by paclitaxel; experiment: Experimental Example 1: pain threshold of paclitaxel-treated mice, balance type pressing device (Ugo Basile); settings: mean ± standard error
# Experimental: Mice (C57BL/6N, male, 7-week-old) were divided into Group A (6 mice), Group B (6 mice), and Group C (6 mice). Group B and Group C were intraperitoneally administered with paclitaxel (dissolved in ethanol:Cremophor EL:saline=0.5:0.5:9; 4 mg/kg body weight). As Group A, non-treated animals were used. Group C was intravenously administered with compound 72 (10 mg/kg body weight) of Reference Example A dissolved in an emulsion containing soybean oil, egg-yolk lecithin, glycerol and the like immediately before and 1 and 2 weeks after intraperitoneal administration of paclitaxel (total 3 times). Thus, neither paclitaxel nor Compound 72 was administered to Group A; paclitaxel but not Compound 72 was administered to Group B; and both paclitaxel and Compound 72 were administered to Group C. Pain threshold of each group was measured 3 weeks after paclitaxel administration to Group B and Group C. Pain threshold is a weighed value (gram) at the time when a false escape response is observed by pressurizing the plantar part of the right hindlimb using a balance type pressing device (Ugo Basile). The values in the Table show mean ±standard error of the weighed values.
# [3] = system: Rat (Wistar, male, 5-week-old), peripheral nerve disorders induced by paclitaxel; experiment: Experimental Example 3: pain threshold of paclitaxel-treated rats, Electronic von Frey
# Experimental: Rat (Wistar, male, 5-week-old) were divided into Group A, Group B, and Group C. As Group A, non-treated animals were used. To Group B and Group C, paclitaxel is diluted with saline to a given concentration, and intraperitoneally administered at 6 mg/kg body weight for a total of 3 times at intervals of 1 to 2 days. Group C was intravenously administered with compound 72 (10 mg/kg body weight) of Reference Example A dissolved in an emulsion containing soybean oil, egg-yolk lecithin, glycerol and the like immediately before intraperitoneal administration of paclitaxel (total 3 times). Thus, neither paclitaxel nor Compound 72 was administered to Group A; paclitaxel but not Compound 72 was administered to Group B; and both paclitaxel and Compound 72 were administered to Group C. Pain threshold of each group was measured 2 weeks after first paclitaxel administration. Pain threshold is a weighed value (gram) at the time when an avoidance response is observed by pressurizing the plantar part of the right hindlimb using an Electronic von Frey (IITC Life Science). The values in the Table show mean ±standard error of the weighed values, and n is the number of the rats in each group.
# [4] = system: Mice (C57BL/6N, male, 8-week-old), peripheral nerve disorders induced by various anti-cancer agents; experiment: Experimental Example 2: pain threshold of mice given various anti-cancer agents, balance type pressing device (Ugo Basile); settings: 1 week after
# Experimental: Mice (C57BL/6N, male, 8-week-old) were divided into Group A, Group B, and Group C. As Group A, non-treated animals were used. […] Group C was intravenously administered with compound 72 (3 mg/kg body weight) of Reference Example A dissolved in an emulsion containing soybean oil, egg-yolk lecithin, glycerol and the like immediately before intraperitoneal administration of various anti-cancer agents. Thus, neither an enumerated anti- cancer agent nor Compound 72 was administered to Group A; an anti-cancer agent but not Compound 72 was administered to Groups B; and both an anti-cancer agent and Compound 72 were administered to Groups C. Pain threshold of each group was measured 1 week after the administration of the anti-cancer agent. Pain threshold is a weighed value (gram) at the time when a false escape response is observed by pressurizing the plantar part of the right hindlimb using a balance type pressing device (Ugo Basile). The values in the Table show mean ±standard error of the weighed values, and n is the number of the mice in each group.
smiles,measurement,setting,value
"CCOC(=O)C1=CCOC[C@H]1S(=O)(=O)Nc1ccc(F)cc1Cl [compound 9′, ethyl (3S)-3-[N-(2-chloro-4-fluorophenyl)sulfamoyl]-3,6-dihydro-2H-pyran-4-carboxylate]",Pain threshold,"[1]; Group D: bortezomib 0.4 mg/kg i.p. + compound 9′ 1 mg/kg i.v. immediately before, 1 week after",256.7 ± 26.5 g
same,Pain threshold,"[1]; Group D: carboplatin 40 mg/kg i.p. + compound 9′ 1 mg/kg i.v. immediately before, 1 week after",176.7 ± 16.7 g
same,Pain threshold,"[1]; Group D: cisplatin 3 mg/kg i.p. + compound 9′ 1 mg/kg i.v. immediately before, 1 week after",193.3 ± 26.2 g
same,Pain threshold,"[1]; Group D: docetaxel 3 mg/kg i.p. + compound 9′ 1 mg/kg i.v. immediately before, 1 week after",276.7 ± 38.1 g
same,Pain threshold,"[1]; Group D: paclitaxel 10 mg/kg i.p. + compound 9′ 1 mg/kg i.v. immediately before, 3 week after, mean ± standard error",406.7 ± 61.2 g
same,Pain threshold,"[1]; Group D: vincristine 0.1 mg/kg i.p. + compound 9′ 1 mg/kg i.v. immediately before, 1 week after",306.7 ± 73.5 g
"CC(=O)O[C@H]1C(=O)[C@@]2(C)[C@H]([C@H](OC(=O)c3ccccc3)[C@]3(O)C[C@H](OC(=O)[C@H](O)[C@@H](NC(=O)c4ccccc4)c4ccccc4)C(C)=C1C3(C)C)[C@]1(OC(C)=O)CO[C@@H]1C[C@@H]2O [paclitaxel, reference compound]",Pain threshold,"[2]; Group B: paclitaxel 4 mg/kg i.p. alone, measured 3 weeks after, non-treated Group A 443.3 ± 32.8",185.0 ± 19.3 g
same,Pain threshold,"[3]; Group B: paclitaxel 6 mg/kg i.p. 3 times alone, 2 weeks after first administration, non-treated Group A 25.8 ± 0.7",15.4 ± 2.6 g
"N.N.O=C([O-])C1(C(=O)[O-])CCC1.[Pt+2] [Carboplatin, carboplatin, reference compound]",Pain threshold,"[4]; Group B: anti-cancer agent alone i.p. (docetaxel 3, vincristine 0.1, cisplatin 3, carboplatin 40, bortezomib 0.4 mg/kg), non-treated Group A 365.0 ± 17.8",110.0 ± 6.8 g
same,Pain threshold,"[1]; Group B: anti-cancer agent alone i.p. (docetaxel 3, vincristine 0.1, cisplatin 3, carboplatin 40, bortezomib 0.4 mg/kg), 1 week after",110.0 ± 6.8 g
"CCOC(=O)C1=CCCC[C@H]1S(=O)(=O)Nc1ccc(F)cc1Cl [compound 72, ethyl (6R)-6-[N-(2-chloro-4-fluorophenyl)sulfamoyl]-1-cyclohexene-1-carboxylate]",Pain threshold,"[4]; Group C: bortezomib 0.4 mg/kg i.p. + compound 72 3 mg/kg i.v. immediately before, mean ± standard error",306.7 ± 24.0 g
same,Pain threshold,"[4]; Group C: carboplatin 40 mg/kg i.p. + compound 72 3 mg/kg i.v. immediately before, mean ± standard error",213.3 ± 13.3 g
same,Pain threshold,"[4]; Group C: cisplatin 3 mg/kg i.p. + compound 72 3 mg/kg i.v. immediately before, mean ± standard error",166.7 ± 18.5 g
same,Pain threshold,"[4]; Group C: docetaxel 3 mg/kg i.p. + compound 72 3 mg/kg i.v. immediately before, mean ± standard error",276.7 ± 17.4 g
same,Pain threshold,"[4]; Group C: vincristine 0.1 mg/kg i.p. + compound 72 3 mg/kg i.v. immediately before, mean ± standard error",289.2 ± 44.6 g
same,Pain threshold,"[2]; Group C: paclitaxel 4 mg/kg i.p. + compound 72 10 mg/kg i.v. immediately before and 1 and 2 weeks after (3 times), measured 3 weeks after paclitaxel",441.7 ± 28.6 g
same,Pain threshold,"[3]; Group C: paclitaxel 6 mg/kg i.p. 3 times + compound 72 10 mg/kg i.v. immediately before each, 2 weeks after first paclitaxel, mean ± standard error",24.9 ± 0.9 g
